Patent publication US6184401A, “Alpha-fluoro alkynoic acids with anticonvulsant activity” (priority 1999, dated 2001)

Tests used:
[1] = system: fetuses; assay: Teratogenic potential: exencephaly in fetuses of treated pregnant animals; assay type: in vivo; conditions: sodium salt, injected day 8 of gestation, fetuses examined day 18
Experimental: The teratogenic potential of the compounds was determined by injecting pregnant animals on day 8 of gestation with the sodium salt of the compound to be tested, and by examining the fetuses on day 18 of gestation (H. Nau, 1985, Toxicol. Appl. Pharmacol., 80, 243-250; H. Nau, W. Loscher, 1986, Fund. Appl. Toxicol., 6, 669).

[2] = system: animals (seizure induced by pentylenetetrazole); assay: PTZ convulsion test (anticonvulsant activity); assay type: in vivo; conditions: intraperitoneal, sodium salt, PTZ 65 mg/kg s.c. after 15 minutes
Experimental: The anti-convulsive activity of the compounds of the invention was determined by the PTZ convulsion test (E. Swinyard et al., 1969, "Laboratory Evaluation of Antiepileptic Drugs, Review of Laboratory Methods," Epilepsia 10, 107-119; E. Swinyard, J. Woodhead, in Antiepileptic Drugs, 2nd ed., D. Woodbury, J. Penry, C. Pippenger, eds., Raven Press, New York, 1982, 111-126). Briefly, animals were dosed intraperitoneally with the sodium salt of the compound to be tested, and then challenged after 15 minutes with a subcutaneous injection of pentylenetetrazole (65 mg/kg). The percentage of animals that were protected from seizure (defined as at least one episode of continuous seizure activity lasting at least five seconds) is reported in Table 1 as "Anticonvulsant Activity %".

[3] = anticonvulsant; cited from earlier work
[4] = system: hepatotoxicity; conditions: effect of the 2-fluoro substituent; cited from earlier work
[5] = system: children on polytherapy; conditions: young children on polytherapy; cited from earlier work
[6] = system: mice; conditions: cited from earlier work
[7] = in vivo; cited from earlier work
[8] = system: animals; assay type: in vivo; conditions: dose 1.5 mmol/kg, sodium salt, after 15 minutes
Experimental: The sedative activity of the compounds was determined by the "Rotorod" test (Dunham, Miya, 1957, J. Am. Pharm. Assoc., 46, 208-209). Animals were dosed with the sodium salt of the compound to be tested, and after 15 minutes they were placed on the ROTOROD apparatus (Rotorod, Ugobasile, Italy). The percentage of animals that fell from the rod is reported as "Sedative Activity %" in Table 1.

[9] = system: newborns of women taking VPA; conditions: newborns of women taking VPA during pregnancy; cited from earlier work

SMILES: CC#CCC(F)(CCC)C(=O)O (centres unmarked) [Example 3, 2-fluoro-2-n-propyl-4-hexynoic acid]
- Teratogenic Activity % (percent of fetuses exhibiting exencephaly) ([1]; dose 3.0 mmol/kg): 2%
- Anticonvulsant Activity % (percentage of animals protected from seizure) ([2]; dose 1.5 mmol/kg): 20%

SMILES: CC#CCC(F)(CCCCCCC)C(=O)O (centres unmarked) [Example 7, 2-fluoro-2-n-heptyl-4-hexynoic acid]
- Teratogenic Activity % (percent of fetuses exhibiting exencephaly) ([1]; dose 1.0 mmol/kg): 0%
- Anticonvulsant Activity % (percentage of animals protected from seizure) ([2]; dose 0.5 mmol/kg): 60%

SMILES: CCCC(CCC(F)(F)F)C(=O)O (centres unmarked) [5,5,5-trifluoro-2-n-propyl pentanoic acid]
- potency relative to VPA [3]: less potent than VPA

SMILES: CC#CCC(F)(CCCCC)C(=O)O (centres unmarked) [Example 5, 2-fluoro-2-n-pentyl-4-hexynoic acid]
- Teratogenic Activity % (percent of fetuses exhibiting exencephaly) ([1]; dose 1.5 mmol/kg): 1%
- Anticonvulsant Activity % (percentage of animals protected from seizure) ([2]; dose 1.5 mmol/kg): 80%

SMILES: O=C(O)C(CCC(F)(F)F)CCC(F)(F)F [5,5,5-trifluoro-2-(3,3,3-trifluoropropyl) pentanoic acid]
- potency relative to VPA [3]: less potent than VPA

SMILES: CC#CCC(F)(CCCCCCCC)C(=O)O (centres unmarked) [Example 8, 2-fluoro-2-n-octyl-4-hexynoic acid]
- Teratogenic Activity % (percent of fetuses exhibiting exencephaly) ([1]; dose 0.5 mmol/kg): 0%
- Anticonvulsant Activity % (percentage of animals protected from seizure) ([2]; dose 0.25 mmol/kg): 40%

SMILES: CCCC(F)(CCC)C(=O)O [2-fluoro-2-propylpentanoic acid]
- potency relative to VPA [3]: less potent than VPA

SMILES: C=CCC(F)(CCC)C(=O)O (centres unmarked) [2-fluoro-2-propyl-4-pentenoic acid]
- hepatotoxicity relative to 2-propyl-4-pentenoic acid [4]: reduce hepatotoxicity relative to 2-propyl-4-pentenoic acid

SMILES: CCCC(CCC)C(=O)O [VPA, 2-propylpentanoic acid]
- VPA-induced hepatic fatality rate [5]: 1/500
- Teratogenic Activity % (percent of fetuses exhibiting exencephaly) ([1]; dose 3.0 mmol/kg): 50%
- neural tube defects [6]: induce neural tube defects in mice
- duration of action [7]: short duration of action
- serious side effects [7]: sedation, potentially fatal hepatotoxicity, and teratogenicity
- Anticonvulsant Activity % (percentage of animals protected from seizure) ([2]; dose 1.0 mmol/kg): 60%
- Sedative Activity % (percentage of animals that fell from the rod) [8]: 40%
- risk of spina bifida [9]: 1-2%
